{"source": "paper PMC9120017", "about": "“Inhibition mechanism of the chloride channel TMEM16A by the pore blocker 1PBC” (Nature Communications, 2022)", "target": "T1, mouse TMEM16A mutant R535A (Mus musculus, UniProt Q8BHY3, R535A)", "T1 construct": "expressed in transfected cells; host or cells: HEK293T", "T1 sequence (Q8BHY3 1-960 R535A)": "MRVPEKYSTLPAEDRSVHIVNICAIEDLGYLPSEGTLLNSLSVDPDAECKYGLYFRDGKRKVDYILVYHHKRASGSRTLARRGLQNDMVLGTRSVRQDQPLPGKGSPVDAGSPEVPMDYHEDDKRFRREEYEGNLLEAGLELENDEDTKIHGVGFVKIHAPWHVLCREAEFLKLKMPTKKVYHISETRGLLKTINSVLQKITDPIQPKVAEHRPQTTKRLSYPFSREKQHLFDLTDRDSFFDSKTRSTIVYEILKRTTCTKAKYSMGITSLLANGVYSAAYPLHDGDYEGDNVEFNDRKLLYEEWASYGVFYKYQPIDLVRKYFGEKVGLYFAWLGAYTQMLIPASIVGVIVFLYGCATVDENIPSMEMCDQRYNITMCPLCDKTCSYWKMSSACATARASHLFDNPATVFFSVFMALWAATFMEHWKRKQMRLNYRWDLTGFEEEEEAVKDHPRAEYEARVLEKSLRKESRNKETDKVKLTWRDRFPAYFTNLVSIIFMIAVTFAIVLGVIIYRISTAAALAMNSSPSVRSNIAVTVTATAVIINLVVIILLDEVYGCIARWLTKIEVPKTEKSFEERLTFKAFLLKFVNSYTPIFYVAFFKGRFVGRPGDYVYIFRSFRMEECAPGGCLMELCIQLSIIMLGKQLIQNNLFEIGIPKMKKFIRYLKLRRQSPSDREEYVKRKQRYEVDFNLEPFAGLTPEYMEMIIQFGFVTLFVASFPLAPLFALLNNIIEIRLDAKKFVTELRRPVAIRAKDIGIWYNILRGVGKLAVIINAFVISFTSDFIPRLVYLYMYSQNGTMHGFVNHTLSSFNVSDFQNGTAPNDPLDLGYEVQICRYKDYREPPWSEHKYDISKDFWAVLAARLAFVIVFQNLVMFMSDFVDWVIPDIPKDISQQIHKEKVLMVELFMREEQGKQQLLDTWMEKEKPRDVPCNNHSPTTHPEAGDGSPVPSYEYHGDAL", "experiment": "Inside-out patch recording of 1PBC block, mutant R535A", "type": "cell-based", "settings": "for remaining activity at 100 µM: 100 µM 1PBC", "protocol": "HEK293T cells (ATCC CRL-1573) were maintained in Dulbecco’s modified Eagle’s medium (DMEM; Sigma-Aldrich) supplemented with 10 U ml^−1 penicillin, 0.1 mg ml^−1 streptomycin (Sigma-Aldrich), 2 mM L-glutamine (Sigma-Aldrich), and 10% FBS (Sigma-Aldrich) in a humidified atmosphere containing 5% CO2 at 37 °C. HEK293S GnTI^− cells (ATCC CRL-3022) were maintained in HyClone HyCell TransFx-H medium (GE Healthcare) supplemented with 10 U ml^−1 penicillin, 0.1 mg ml^−1 streptomycin, 4 mM L-glutamine, 0.15% poloxamer 188 (Sigma-Aldrich), and 1% FBS in an atmosphere containing 5% CO2 at 185 rpm at 37 °C. The ac splice variant of mouse TMEM16A (UniProt ID: Q8BHY3), mouse TMEM16B (UniProt ID: Q8CFW1), or mouse TMEM16F (UniProt ID: Q6P9J9) bearing a 3C cleavage site, a Venus YFP, a Myc tag, and a Streptavidin-binding peptide (SBP) downstream of the open reading frame in a modified pcDNA3.1 vector (Invitrogen) were used as described previously[21],[31]. Mutations were introduced using a modified QuikChange method[58] and were verified by sequencing.\nHEK293T cells were transfected with 3–4 μg DNA per 6 cm Petri dish using the calcium phosphate co-precipitation method and were used within 24–96 h after transfection. Recordings were performed on inside-out patches excised from HEK293T cells expressing the construct of interest. Patch pipettes were pulled from borosilicate glass capillaries (O.D. 1.5 mm, I.D. 0.86 mm, Sutter Instrument) and were fire-polished with a microforge (Narishige) before use. Pipette resistance was typically 3–8 MΩ when filled with the recording solutions detailed below. Seal resistance was typically 4 GΩ or higher. Voltage-clamp recordings were made using Axopatch 200B, Digidata 1550, and Clampex 10.7 (Molecular Devices). Analog signals were filtered with the in-built 4-pole Bessel filter at 10 kHz and were digitized at 20 kHz. Solution exchange was achieved using a gravity-fed system through a theta glass pipette mounted on an ultra-fast piezo-driven stepper (Siskiyou). […] All recordings were performed at 20 °C.\nA symmetrical ionic condition was used throughout. Stock solution with Ca^2+-EGTA contained 150 mM NaCl, 5.99 mM Ca(OH)2, 5 mM EGTA, and 10 mM HEPES at pH 7.40. Stock solution with EGTA contained 150 mM NaCl, 5 mM EGTA, and 10 mM HEPES at pH 7.40. Free Ca^2+ concentrations were adjusted by mixing the stock solutions at the required ratios calculated using the WEBMAXC program (http://web.stanford.edu/~cpatton/webmaxcS.htm). Patch pipettes were filled with the stock solution with Ca^2+-EGTA, which has a free Ca^2+ concentration of 1 mM. 1PBC (ChemBridge) stock was reconstituted in anhydrous DMSO (Sigma-Aldrich) at 100 mM and stored at −20 °C. Working solutions with 1PBC were prepared by serial dilution. Unless otherwise stated, experiments were performed at a saturating Ca^2+ concentration as shown in Supplementary Table 1 and the primary data were corrected for current rundown as described previously[21],[25].\nConcentration-response relations, obtained from the ratio of the I-V plots before and after the application of the blocker, were fitted to the Hill equation,1 I/Imax=1/1+IC50/[blocker]^h where I/Imax is the normalized current responses, IC50 defines the concentration at which inhibition is at its half-maximum, and h is the Hill coefficient.", "note": "Read-outs that look alike come from different tables or passages of the source.", "data": [{"smiles": "N#Cc1c(C(F)(F)F)cc(O)n2c1nc1ccccc12", "note": "[1PBC]", "values": [{"measurement": "IC50", "setting": "0 mV, 2 µM Ca2+", "result": 11.9, "unit": "µM"}, {"measurement": "remaining activity at 3 µM", "setting": "3 µM 1PBC, +80 mV, saturating Ca2+ (2 µM), read-out: I/Imax", "result": 67.6, "unit": "%"}, {"measurement": "remaining activity at 3 µM", "setting": "3 µM 1PBC, -80 mV, saturating Ca2+ (2 µM), read-out: I/Imax", "result": 91.3, "unit": "%"}, {"measurement": "remaining activity at 10 µM", "setting": "10 µM 1PBC, +80 mV, saturating Ca2+ (2 µM), read-out: I/Imax", "result": 36.9, "unit": "%"}, {"measurement": "remaining activity at 10 µM", "setting": "10 µM 1PBC, -80 mV, saturating Ca2+ (2 µM), read-out: I/Imax", "result": 70.8, "unit": "%"}, {"measurement": "remaining activity at 30 µM", "setting": "30 µM 1PBC, +80 mV, saturating Ca2+ (2 µM), read-out: I/Imax", "result": 16.6, "unit": "%"}, {"measurement": "remaining activity at 30 µM", "setting": "30 µM 1PBC, -80 mV, saturating Ca2+ (2 µM), read-out: I/Imax", "result": 46.3, "unit": "%"}, {"measurement": "remaining activity at 100 µM", "setting": "+80 mV, saturating Ca2+ (2 µM), read-out: I/Imax", "result": 5.26, "unit": "%"}, {"measurement": "remaining activity at 100 µM", "setting": "-80 mV, saturating Ca2+ (2 µM), read-out: I/Imax", "result": 21.3, "unit": "%"}, {"measurement": "remaining activity at 3 µM", "setting": "1PBC 3, 0 mV, read-out: fraction of unblocked current", "result": 80.7, "unit": "%"}, {"measurement": "remaining activity at 3 µM", "setting": "1PBC 3, 20 mV, read-out: fraction of unblocked current", "result": 76.3, "unit": "%"}, {"measurement": "remaining activity at 3 µM", "setting": "1PBC 3, 40 mV, read-out: fraction of unblocked current", "result": 72.5, "unit": "%"}, {"measurement": "remaining activity at 3 µM", "setting": "1PBC 3, 60 mV, read-out: fraction of unblocked current", "result": 69.3, "unit": "%"}, {"measurement": "remaining activity at 3 µM", "setting": "1PBC 3, 80 mV, read-out: fraction of unblocked current", "result": 67.6, "unit": "%"}, {"measurement": "remaining activity at 3 µM", "setting": "1PBC 3, 100 mV, read-out: fraction of unblocked current", "result": 65.8, "unit": "%"}, {"measurement": "remaining activity at 3 µM", "setting": "1PBC 3, 120 mV, read-out: fraction of unblocked current", "result": 66, "unit": "%"}, {"measurement": "remaining activity at 3 µM", "setting": "1PBC 3, 140 mV, read-out: fraction of unblocked current", "result": 66.6, "unit": "%"}, {"measurement": "remaining activity at 3 µM", "setting": "1PBC 3, -20 mV, read-out: fraction of unblocked current", "result": 85.2, "unit": "%"}, {"measurement": "remaining activity at 3 µM", "setting": "1PBC 3, -40 mV, read-out: fraction of unblocked current", "result": 87.7, "unit": "%"}, {"measurement": "remaining activity at 3 µM", "setting": "1PBC 3, -60 mV, read-out: fraction of unblocked current", "result": 89.5, "unit": "%"}, {"measurement": "remaining activity at 3 µM", "setting": "1PBC 3, -80 mV, read-out: fraction of unblocked current", "result": 91.3, "unit": "%"}, {"measurement": "remaining activity at 3 µM", "setting": "1PBC 3, -100 mV, read-out: fraction of unblocked current", "result": 91.1, "unit": "%"}, {"measurement": "remaining activity at 3 µM", "setting": "1PBC 3, -120 mV, read-out: fraction of unblocked current", "result": 92.2, "unit": "%"}, {"measurement": "remaining activity at 3 µM", "setting": "1PBC 3, -140 mV, read-out: fraction of unblocked current", "result": 91.6, "unit": "%"}, {"measurement": "remaining activity at 10 µM", "setting": "1PBC 10, 0 mV, read-out: fraction of unblocked current", "result": 53.9, "unit": "%"}, {"measurement": "remaining activity at 10 µM", "setting": "1PBC 10, 20 mV, read-out: fraction of unblocked current", "result": 48.3, "unit": "%"}, {"measurement": "remaining activity at 10 µM", "setting": "1PBC 10, 40 mV, read-out: fraction of unblocked current", "result": 43.7, "unit": "%"}, {"measurement": "remaining activity at 10 µM", "setting": "1PBC 10, 60 mV, read-out: fraction of unblocked current", "result": 39.8, "unit": "%"}, {"measurement": "remaining activity at 10 µM", "setting": "1PBC 10, 80 mV, read-out: fraction of unblocked current", "result": 36.9, "unit": "%"}, {"measurement": "remaining activity at 10 µM", "setting": "1PBC 10, 100 mV, read-out: fraction of unblocked current", "result": 34.6, "unit": "%"}, {"measurement": "remaining activity at 10 µM", "setting": "1PBC 10, 120 mV, read-out: fraction of unblocked current", "result": 34.7, "unit": "%"}, {"measurement": "remaining activity at 10 µM", "setting": "1PBC 10, 140 mV, read-out: fraction of unblocked current", "result": 35.9, "unit": "%"}, {"measurement": "remaining activity at 10 µM", "setting": "1PBC 10, -20 mV, read-out: fraction of unblocked current", "result": 59.6, "unit": "%"}, {"measurement": "remaining activity at 10 µM", "setting": "1PBC 10, -40 mV, read-out: fraction of unblocked current", "result": 63.3, "unit": "%"}, {"measurement": "remaining activity at 10 µM", "setting": "1PBC 10, -60 mV, read-out: fraction of unblocked current", "result": 67, "unit": "%"}, {"measurement": "remaining activity at 10 µM", "setting": "1PBC 10, -80 mV, read-out: fraction of unblocked current", "result": 70.8, "unit": "%"}, {"measurement": "remaining activity at 10 µM", "setting": "1PBC 10, -100 mV, read-out: fraction of unblocked current", "result": 73, "unit": "%"}, {"measurement": "remaining activity at 10 µM", "setting": "1PBC 10, -120 mV, read-out: fraction of unblocked current", "result": 74.7, "unit": "%"}, {"measurement": "remaining activity at 10 µM", "setting": "1PBC 10, -140 mV, read-out: fraction of unblocked current", "result": 75.4, "unit": "%"}, {"measurement": "remaining activity at 30 µM", "setting": "1PBC 30, 0 mV, read-out: fraction of unblocked current", "result": 28.6, "unit": "%"}, {"measurement": "remaining activity at 30 µM", "setting": "1PBC 30, 20 mV, read-out: fraction of unblocked current", "result": 24.4, "unit": "%"}, {"measurement": "remaining activity at 30 µM", "setting": "1PBC 30, 40 mV, read-out: fraction of unblocked current", "result": 20.9, "unit": "%"}, {"measurement": "remaining activity at 30 µM", "setting": "1PBC 30, 60 mV, read-out: fraction of unblocked current", "result": 18.1, "unit": "%"}, {"measurement": "remaining activity at 30 µM", "setting": "1PBC 30, 80 mV, read-out: fraction of unblocked current", "result": 16.6, "unit": "%"}, {"measurement": "remaining activity at 30 µM", "setting": "1PBC 30, 100 mV, read-out: fraction of unblocked current", "result": 15.4, "unit": "%"}, {"measurement": "remaining activity at 30 µM", "setting": "1PBC 30, 120 mV, read-out: fraction of unblocked current", "result": 15.7, "unit": "%"}, {"measurement": "remaining activity at 30 µM", "setting": "1PBC 30, 140 mV, read-out: fraction of unblocked current", "result": 16.3, "unit": "%"}, {"measurement": "remaining activity at 30 µM", "setting": "1PBC 30, -20 mV, read-out: fraction of unblocked current", "result": 32.7, "unit": "%"}, {"measurement": "remaining activity at 30 µM", "setting": "1PBC 30, -40 mV, read-out: fraction of unblocked current", "result": 36.9, "unit": "%"}]}]}
